From ChEMBL document CHEMBL3046728, “Modifications to five-substituted 3,3-diethyl-4,5-dihydro-2(3H)-furanones en route to novel muscarinic receptor ligands” (Med Chem Res, 2011) come the findings set out here.

As a reminder, the inhibition is the percentage by which the read-out fell short of the control. Low values mean a weak effect, high ones a strong effect. In general, IC50 refers to the midpoint of a concentration-inhibition curve. A lower IC50 goes with inhibition by little substance.

In one test the target is Muscarinic acetylcholine receptor (Rattus norvegicus) (UniProt P08482+P08483+P08485+P08911+P10980). Kind of test: Displacement of [3H]-QNB from muscarnic receptor in Rattus norvegicus (rat) cerebral cortex at 10 uM after 90 min by scintillation counting analysis. The format is tissue-based. A general note: Displacement assays read how much labelled ligand stays bound in the presence of the test substance.
The compound `CCC1(CC)CC(CN2CCN(C(=O)c3ccccc3)CC2)OC1=O` (stereo unspecified) gave an inhibition of 5%.
`CCC1(CC)CC(CN2CCN(c3ccccc3C#N)CC2)OC1=O` (stereo unspecified): the inhibition worked out at 31%.
Same read-out and setting: to `CCC1(CC)CC(CN2CCN(c3cccc(OC)c3)CC2)OC1=O` (stereo unspecified) belongs 9%.
Turning to `CCC1(CC)CC(CN2CCc3ccccc3C2)OC1=O` (stereo unspecified), the inhibition worked out at 44%.
The compound `CCC1(CC)CC(CN2CCC(c3nc4ccccc4[nH]3)CC2)OC1=O` (stereo unspecified) showed an inhibition of 46%.
`CCC1(CC)CC(CN2CCN(c3ccccc3)CC2)OC1=O` (stereo unspecified) yielded an inhibition of 16%.
`CCC1(CC)CC(CN2CCN(C(c3ccccc3)c3ccccc3)CC2)OC1=O` (stereo unspecified): the inhibition was determined as 97%.
The same measure, in the same setting: to `CCC1(CC)CC(COC(=O)Nc2ccc(N3CCCCC3)cc2)OC1=O` (stereo unspecified) belongs 31%; to `CCC1(CC)CC(CN2CCN(c3ccc([N+](=O)[O-])cc3)CC2)OC1=O` (stereo unspecified), 18%.
As for `CCC1(CC)CC(CN2CCN(c3ccc(OC)cc3)CC2)OC1=O` (stereo unspecified), the inhibition worked out at 26%.
Still for that read-out and setting: to `CCC1(CC)CC(CN2CCN(c3ccc(C#N)cc3)CC2)OC1=O` (stereo unspecified) belongs 18%; to `CCC1(CC)CC(CN2CCC(c3ccccc3)CC2)OC1=O` (stereo unspecified), 68%.
Still for that read-out and setting: to `CCC1(CC)CC(CN2CCN(c3ccccc3O)CC2)OC1=O` (stereo unspecified) belongs 46%; to `CCC1(CC)CC(CN2CCN(c3ccc(O)cc3)CC2)OC1=O` (stereo unspecified), 7%.
The same measure, in the same setting: to `CCC1(CC)CC(CN2CCN(c3ccccc3OC)CC2)OC1=O` (stereo unspecified) belongs 32%.

Another test has as its target Muscarinic acetylcholine receptor. As to the kind of experiment: Displacement of [3H]-QNB from muscarnic receptor in Rattus norvegicus (rat) cerebral cortex after 90 min by scintillation counting analysis. The format is tissue-based.
Compound `CCC1(CC)CC(CN2CCN(C(c3ccccc3)c3ccccc3)CC2)OC1=O` (stereo unspecified) came in with an IC50 of 0.34 µM.
